Data as given in US6867211B2, “4-Pyridyl-and 2,4-pyrimidinyl-substituted pyrrole derivatives and their use in pharmacy” (Merckle GmbH, priority 2000, dated 2005).
pIC50: −log10 of the molar value.

Columns and labels:
IL-1β [1] = assay: In vitro test procedure using human whole blood, LPS-stimulated, IL-1β by ELISA; type: cell-based; conditions: whole-blood method; for pIC50: Homo sapiens
Protocol: (§1) In vitro Test Procedure Using Human Whole Blood
(§2) Human potassium-EDTA whole blood (at 400 μl) is preincubated with test substance for 15 min. at 37° C. in a CO2 incubator (5% CO2; 95% moisture-saturated air). The samples are then stimulated for 4 hours with 1 μg/ml of LPS (E. coli 026:B6) at 37° C. in a CO2 incubator (5% CO2; 95% moisture-saturated air). The reaction is ended by placing the samples on ice, addition of DPBS buffer and subsequent centrifugation (1000×g; 15 min). The plasma supernatant is used for the quantification of IL-1β and TNFα by means of ELISA.

TNFα [2] = assay: In vitro test procedure using PBMCs, LPS-stimulated, TNFα by ELISA; type: cell-based; conditions: Homo sapiens, PBMC; for inhibition at 10 µM / inhibition at 1 µM: 4 h, read-out: TNFα percentage inhibition; for inhibition at 10 µM: at 10 μmol; for inhibition at 1 µM: at 1 μmol
Protocol: (§3) In vitro Test Procedure Using PBMCs
(§4) The mononuclear cells (PBMCs) are isolated from human potassium-EDTA whole blood diluted 1:3 by means of density gradient centrifugation (Histopaque®-1.077). After 2 washing steps with DPBS buffer, the mononuclear cells are resuspended in macrophage-SFM medium and adjusted to a cell count of 1×10^6 cells/ml.
(§5) The PBMCs suspension (at 390 μl) is preincubated with test substance for 15 min at 37° C. in a CO2 incubator (5% CO2; 95% moisture-saturated air). The samples are subsequently stimulated for 4 hours with 1 μg/ml LPS (E.coli 026:B6) at 37° C. in a CO2 incubator (5% CO2, 95% moisture-saturated air). The reaction is ended by placing the samples on ice, addition of DPBS buffer and centrifugation (15880×g; 12 min). The supernatant is used for the quantification of IL-1β and TNFα by means of ELISA.

TNFα [3] = assay: In vitro test procedure using human whole blood, LPS-stimulated, TNFα by ELISA; type: cell-based; conditions: whole-blood method; for pIC50: Homo sapiens
Protocol: as §1, §2

IL-1β [4] = assay: In vitro test procedure using PBMCs, LPS-stimulated, IL-1β by ELISA; type: cell-based; conditions: Homo sapiens, PBMC; for inhibition at 10 µM: at 10 μmol
Protocol: as §3, §4, §5

5-lipoxygenase = biological target: T1, 5-lipoxygenase (Homo sapiens, UniProt P09917); assay: In vitro test system for determining the inhibition of 5-lipoxygenase (LTB4 from human granulocytes, A 23187, ELISA); type: cell-based; conditions: for pIC50: human granulocytes, read-out: 5-LO IC50
T1 construct: Human granulocytes are used as a source of the 5-lipoxygenase; endogenous in cells; host or cells: human granulocytes isolated from heparinised blood on a Percoll gradient
T1 sequence (P09917 1-674): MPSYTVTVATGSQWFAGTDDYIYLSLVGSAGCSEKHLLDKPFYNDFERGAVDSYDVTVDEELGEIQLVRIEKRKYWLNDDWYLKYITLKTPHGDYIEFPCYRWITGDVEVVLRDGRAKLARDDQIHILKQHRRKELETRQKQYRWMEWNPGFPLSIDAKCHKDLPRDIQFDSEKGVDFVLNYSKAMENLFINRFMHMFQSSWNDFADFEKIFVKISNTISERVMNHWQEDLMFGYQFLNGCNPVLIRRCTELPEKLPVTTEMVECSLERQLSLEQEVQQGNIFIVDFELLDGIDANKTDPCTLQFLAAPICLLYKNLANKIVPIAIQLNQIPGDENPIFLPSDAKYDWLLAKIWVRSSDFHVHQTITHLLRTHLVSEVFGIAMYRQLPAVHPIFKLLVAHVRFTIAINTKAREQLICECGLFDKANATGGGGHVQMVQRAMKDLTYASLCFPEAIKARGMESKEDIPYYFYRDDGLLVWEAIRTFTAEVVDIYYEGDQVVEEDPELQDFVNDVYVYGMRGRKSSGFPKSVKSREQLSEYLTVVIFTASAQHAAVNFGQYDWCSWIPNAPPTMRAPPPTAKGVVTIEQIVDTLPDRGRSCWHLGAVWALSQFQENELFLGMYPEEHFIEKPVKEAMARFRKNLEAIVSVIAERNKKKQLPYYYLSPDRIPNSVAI
Protocol: In vitro Test System for Determining the Inhibition of 5-lipoxygenase
Human granulocytes are used as a source of the 5-lipoxygenase. LTB4 (leukotriene B4) is formed from endogenous arachidonic acid by means of stimulation with calcium ionophore A 23187. The granulocytes are isolated and the enzyme reaction is carried out according to known processes (see Arch. Pharm. Pharm. Med. Chem. 330, 307-312 (1997)).
The blood, which is protected from clotting with heparin, is centrifuged on a discontinuous Percoll® gradient and the granulocyte layer is pipetted off. After lysis of the erythrocytes, the granulocytes are washed a number of times and then adjusted to a specific cell count. The enzyme reaction is then started with calcium ionophore A 23187 in the presence or absence of the test substance after addition of Ca2+. The synthesis of the leukotrienes is stopped after 1.5 minutes. The samples are centrifuged off and the supernatant is diluted. LTB4 is determined quantitatively by means of ELISA.

[5] = biological target: T2, COX2 (from sheep placenta) (Ovis aries, UniProt P79208); assay: In vitro test system for determining the inhibition of cyclooxygenase-2 (COX2 from sheep placenta, PGE2 ELISA); type: biochemical; conditions: read-out: COX-2 IC50
T2 construct: COX2 (from sheep placenta) is preincubated at 4° C. with test substance for 10 min; from tissue; host or cells: sheep placenta
T2 sequence (P79208 17-603): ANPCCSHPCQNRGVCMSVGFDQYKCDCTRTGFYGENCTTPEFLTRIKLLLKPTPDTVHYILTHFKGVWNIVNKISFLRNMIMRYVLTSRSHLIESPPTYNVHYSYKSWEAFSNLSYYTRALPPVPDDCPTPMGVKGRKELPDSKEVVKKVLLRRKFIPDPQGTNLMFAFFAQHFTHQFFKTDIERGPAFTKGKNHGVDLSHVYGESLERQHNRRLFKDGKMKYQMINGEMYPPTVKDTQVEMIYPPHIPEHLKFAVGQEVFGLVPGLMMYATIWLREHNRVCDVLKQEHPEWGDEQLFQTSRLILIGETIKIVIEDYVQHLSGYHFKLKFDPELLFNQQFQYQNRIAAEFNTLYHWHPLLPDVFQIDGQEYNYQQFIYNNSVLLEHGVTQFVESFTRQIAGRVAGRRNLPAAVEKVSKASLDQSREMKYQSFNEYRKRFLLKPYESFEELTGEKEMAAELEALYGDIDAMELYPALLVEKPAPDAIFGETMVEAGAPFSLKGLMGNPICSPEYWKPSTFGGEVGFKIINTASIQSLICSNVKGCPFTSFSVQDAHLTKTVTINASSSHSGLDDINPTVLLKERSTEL
Protocol: In vitro Test System for Determining the Inhibition of Cyclooxygenase-2
COX2 (from sheep placenta) is preincubated at 4° C. with test substance for 10 min, then stimulated with arachidonic acid (5 μM) at 25° C. for 10 min. […] The determination is carried out at 3 dilutions (10^−7, 10^−6, 10^−5 M). The PGE2 concentrations are quantified by means of ELISA (see Mitchell J. A. et al., Proc. Nat. Acad. Sci. 90: 11693-11697 (1993)).

cyclooxygenase-1 = biological target: T3, cyclooxygenase-1 (Homo sapiens, UniProt P23219); assay: In vitro test system for determining the inhibition of cyclooxygenase-1 (PGE2 from human platelets, calcium ionophore, ELISA); type: cell-based; conditions: for COX-1 percentage inhibition: at 10 μmol
T3 construct: endogenous in cells; host or cells: human platelets isolated on a discontinuous Percoll gradient
Protocol: In vitro Test System for Determining the Inhibition of Cyclooxygenase-1
In this test system, the amount of prostaglandin E2 formed from human platelets after addition of calcium ionophore is determined by means of ELISA. In this process, the platelets are obtained after centrifugation on a discontinuous Percoll® gradient. The enzyme reaction and the determination of the metabolites formed is carried out in principle as in the determination of 5-lipoxygenase inhibition. Differences exist with respect to the incubation time. Furthermore, the addition of a thromboxane synthesis inhibitor is necessary (see Arch. Pharm. Pharm. Med. Chem. 330, 307-312 (1997)).

[6] = 4 h, read-out: IL-1β percentage inhibition

T3 sequence (P23219 24-599): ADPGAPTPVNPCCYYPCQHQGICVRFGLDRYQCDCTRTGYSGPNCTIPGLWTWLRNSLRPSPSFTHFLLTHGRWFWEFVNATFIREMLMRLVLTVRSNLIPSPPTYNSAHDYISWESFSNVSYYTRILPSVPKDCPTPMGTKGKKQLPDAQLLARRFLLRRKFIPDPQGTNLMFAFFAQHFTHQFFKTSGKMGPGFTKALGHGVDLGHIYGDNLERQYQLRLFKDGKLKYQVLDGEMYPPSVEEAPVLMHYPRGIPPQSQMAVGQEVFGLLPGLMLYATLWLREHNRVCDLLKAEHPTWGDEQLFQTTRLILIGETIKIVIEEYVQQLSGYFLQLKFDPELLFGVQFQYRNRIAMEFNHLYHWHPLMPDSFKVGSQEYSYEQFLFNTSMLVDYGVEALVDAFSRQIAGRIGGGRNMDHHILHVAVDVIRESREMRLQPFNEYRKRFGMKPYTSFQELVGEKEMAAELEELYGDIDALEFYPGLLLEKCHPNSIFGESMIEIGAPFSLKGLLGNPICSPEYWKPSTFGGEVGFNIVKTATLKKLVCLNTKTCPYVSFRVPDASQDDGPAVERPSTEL

SMILES | pIC50 (IL-1β [1]) | inhibition at 10 µM (TNFα [2]) | pIC50 (TNFα [3]) | inhibition at 10 µM (IL-1β [4]; [6]) | pIC50 (TNFα [2]) | pIC50 (IL-1β [4]) | pIC50 (5-lipoxygenase) | COX-1 percentage inhibition (cyclooxygenase-1) | also measured
CCOC(=O)c1c(-c2ccncc2)c(-c2ccc(F)cc2)n2c1CCC2 [Example 1A, Ethyl 3-(4-fluorophenyl)-2-(4-pyridyl)-6,7-dihydro-5H-pyrrolizine-1-carboxylate] | 4.52 | 13% | 4.52 | 21% |  |  |  |  | 
CCOC(=O)c1c(-c2ccncc2)c2n(c1-c1ccc(F)cc1)CCC2 [Example 1B, Ethyl 3-(4-fluorophenyl)-1-(4-pyridyl)-6,7-dihydro-5H-pyrrolizine-2-carboxylate] |  | 60% |  |  | 5.85 | 5.85 | 5.70 |  | inhibition at 1 µM (TNFα [2]): 12%
O=C(O)c1c(-c2ccncc2)c(-c2ccc(F)cc2)n2c1CCC2 [Example 2, 3-(4-Fluorophenyl)-2-(4-pyridyl)-6,7-dihydro-5H-pyrrolizine-1-carboxylic acid] | 5.54 | 37% | 4.80 | 17% |  |  |  |  | 
Fc1ccc(-c2c(-c3ccncc3)cc3n2CCC3)cc1 [Example 5, 5-(4-Fluorophenyl)-6-(4-pyridyl)-2,3-dihydro-1H-pyrrolizine] |  | 88% |  |  | 5.85 |  | 7.57 |  | inhibition at 1 µM (TNFα [2]): 44%; pIC50 [5]: 5.24
O=C(O)c1c(-c2ccncc2)c(-c2cccs2)n2c1CCC2 [Example 7, 3-(2-Thienyl)-2-(4-pyridyl)-6,7-dihydro-5H-pyrrolizine-1-carboxylic acid] | 4.28 |  | 4.32 |  |  |  |  | 10/40% | 
CCOC(=O)c1c(-c2ccncc2)c(-c2ccc(Cl)s2)n2c1CCC2 [Example 9A, Ethyl 3-(5-chloro-2-thienyl)-2-(4-pyridyl)-6,7-dihydro-5H-pyrrolizine-1-carboxylate] | 4.66 | 38% | 4.42 | 47% |  |  | 5.89 | 10/11% | 
O=C(O)c1c(-c2ccncc2)c(-c2ccc(F)cc2)n2c1SCC2 [Example 11, 5-(4-Fluorophenyl)-6-(4-pyridyl)-2,3-dihydro-pyrrole-[2,1-b]-thiazole-7-carboxylic acid] |  |  |  |  | 5.17 | 5.64 |  | 10/33% | IL-1β percentage inhibition (IL-1β [1]; at 100 μmol): 45%; TNFα percentage inhibition (TNFα [3]; at 100 μmol): 45%; 5-LO percentage inhibition (5-lipoxygenase; at 10 μmol): 10/30%
OCc1c(-c2ccncc2)c(-c2ccc(F)cc2)n2c1SCC2 [Example 12, [5-(4-Fluorophenyl)-6-(4-pyridyl)-2,3-dihydro-pyrrolo-[2,1-b]-thiazol-7-yl]methanol] | 4.12 | 44% | 4.35 |  |  | 5.12 |  |  | 
Cc1c(-c2ccncc2)c(-c2ccc(F)cc2)n2c1SCC2 [Example 13, 5-(4-Fluorophenyl)-7-methyl-6-pyridin-4-yl-2,3-dihydropyrrolo-[2,1-b]-thiazole] | 4.10 |  | 4.39 | 43% | 5.09 |  | 7.40 | 10/45% | 
Fc1ccc(-c2c(-c3ccncc3)cc3n2CCS3)cc1 [Example 14, 5-(4-Fluorophenyl)-6-pyridin-4-yl-2,3-dihydro-pyrrolo-[2,1-b]-thiazole] |  |  |  |  | 5.12 | 5.07 | 5.62 |  | pIC50 (cyclooxygenase-1; human platelets, read-out: COX-1 IC50): 5.64
Cc1c(-c2ccncc2)c(-c2ccc(F)cc2)n2c1CCCC2 [Example 17, 3-(4-Fluorophenyl)-1-methyl-2-(4-pyridyl)-5,6,7,8-tetrahydroindolizine] | 4.48 |  | 4.41 | 67% | 5.40 |  | 5.66 | 10/48% | inhibition at 1 µM (IL-1β [4]; 4 h, at 1 μmol, read-out: IL-1β percentage inhibition): 0%
CC1(C)COc2c(-c3ccncc3)c(-c3ccc(F)cc3)cn2C1 [Example 24, 7-(4-Fluorophenyl)-3,3-dimethyl-8-pyridin-4-yl-3,4-dihydro-2H-pyrrolo[2,1-b][1,3]-oxazine] |  | 42% |  | 48% |  |  | 5.87 |  | pIC50 [5]: 5.40
Fc1ccc(-c2c(-c3ccccc3)c3n(c2-c2ccncc2)CCC3)cc1 [Example 25] |  |  |  |  | 4.06 |  |  |  | 
